The values that follow are results of earlier work, collected in patent publication US20250215497A1, “IL-8, IL-6, IL-1 Beta and TET2 and DNMT3A in Atherosclerosis” (The Brigham and Women’s Hospital, Inc., priority 2017, published 2025).

Each structure is given as a SMILES string.

For one data set, the system named is IL-1β. The conditions noted are these: patients with rheumatoid arthritis, low-dose methotrexate (for example from 15 to 20 mg/week).
The test system of another data set is IL-6. The conditions noted are these: patients with rheumatoid arthritis, low-dose methotrexate.

`CN(Cc1cnc2nc(N)nc(N)c2n1)c1ccc(C(=O)N[C@@H](CCC(=O)O)C(=O)O)cc1` [methotrexate]: the “effect on IL-1β levels” value with IL-1β is reported as “improve IL-1β levels”. For the same molecule, in the data set with IL-6, the “effect on IL-6 levels” value was “improve IL-6 levels”.
